Results reported in patent US20210251226A1, “METHOD AND COMPOSITION FOR INHIBITING THE GROWTH OF PSEUDOMONAS SYRINGAE ON A PLANT MATERIAL, AND KIT FOR TREATING THE SAME” (City University of Hong Kong, priority 2020, published 2021).

Assays:
[1] = system: wild-type P. syringae pv. tomato; conditions: 6 day post inoculation
Description: To study the effect of concentration of NaAc on inhibiting growth of P. syringae, 2×10^4 CFU/ml of wild-type P. syringae pv. tomato bacteria were injected into the tomato leaves. Then, the inoculated leaves were sprayed with water and 0.1-100 mM NaAc. Three 1 cm^2 leaf disks at 6 day post inoculation were homogenated and diluted in water to count bacterial CFUs.

[2] = system: P. syringae; assay: Toxicity to P. syringae liquid culture (CFU count); conditions: liquid culture treated 2 hours
Description: To study whether the optimized NaAc recipe is toxic to P. syringae, a P. syringae liquid culture was treated with 0.1 mM FeAc, 100 mM NaAc, and the optimized recipe (1 mM NaAc and 0.1 mM FeAc) respectively for 2 hours. The treated and control (untreated) cultures were then diluted for counting bacterial CFUs.

[3] = system: bean leaf; assay: Toxicity to host plant leaves after injection
Description: Furthermore, to study whether the optimized NaAc recipe is toxic to a host plant, aqueous solutions of 0.1 mM FeAc, 100 mM NaAc, and the optimized recipe (1 mM NaAc and 0.1 mM FeAc) were respectively injected into tomato and bean leaves and inoculated for 6 days.

[4] = system: wild-type P. syringae
[5] = system: wild-type P. syringae; conditions: 10 mM NaAc, 6 days after inoculation, 2×10^4 CFU/ml
[6] = system: P. syringae; conditions: conventional agent, comparison; cited from earlier work
[7] = system: hrpL; assay: hrpL-lux activity (hrpL expression) in wild-type P. syringae; format: cell-based; conditions: 1 mM of each salt
Description: To study the inhibitory effect of different acetate salts to inhibit P. syringae, 1 mM of 12 acetate salts was tested on the expression of hrpL, namely on hrpL-lux activities, in the wild-type P. syringae. The 12 acetate salts included acetate salts of lithium (Li), potassium (K), magnesium (Mg), sodium (Na), calcium (Ca), manganese (Mn), aluminium (Al), nickel (Ni), acetic acid (denoted as HAc), copper (Cu), ammonium (NH4), and iron (Fe).

With `CC(=O)[O-].[Na+]` [NaAc, sodium acetate] the “difference in bacterial CFU between water control and NaAc spray” value ([1]; tomato leaf, 0.1-100 mM spray, P<0.05) was “significant”, the “best concentration for reducing bacterial growth” value ([1]; tomato, of concentrations from 0.1 mM to 100 mM) was 100 mM and the “toxicity to P. syringae” value [2] was “not toxic”. For the same compound, the “toxicity to host plant leaf” value ([3]; injected into leaf, 6 days) was “not toxic”, the “toxicity or resistance on plant” value ([3]; plant) was “no toxicity or resistance on plant” and the “bacterial pathogenicity (disease symptoms) on tomato leaf” value ([4]; 10 mM NaAc, 6 days after inoculation, 2×10^4 CFU/ml) was “significantly reduced bacterial pathogenicity”. The “concentration removing infection symptom” value ([4]; host plant not named at this place) was 10 mM and the “bacterial pathogenicity (disease symptoms) on bean leaf” value [5] was “significantly reduced bacterial pathogenicity”.

For `O=S(=O)([O-])[O-].[Cu+2]` [copper sulfate], the “minimum inhibitory concentration (MIC)” value [6] is given as 3000 µM.

With `CC(=O)[O-].CC(=O)[O-].[Fe+2]` [iron acetate] the “inhibitory effect on hrpL-lux activities, rank among 12 acetate salts” value [7] was “best inhibitory effect”.

In the case of `[H]/N=C(/N)N[C@H]1[C@H](O)[C@@H](O)[C@H](O[C@@H]2O[C@@H](C)[C@](O)(C=O)[C@H]2O[C@@H]2O[C@@H](CO)[C@H](O)[C@@H](O)[C@@H]2NC)[C@@H](N/C(N)=N\[H])[C@@H]1O` [streptomycin], the “minimum inhibitory concentration (MIC)” value [6] is given as 1000 µg/mL.
